Among the data in patent US20230331737A1, “MTORC1 MODULATORS AND USES THEREOF” (Aeovian Pharmaceuticals, Inc., priority 2020, published 2023) are Kd and IC50 values, retold here.

Where only a bound is given, the exact number is not on record here.

The target of assay [1] is FKBP12 ternary complex with FRB (Homo sapiens, UniProt P42345+P62942). As to the kind of experiment: SPR assay to characterize ternary complex formation with FKBP12 (FRB injected over compound-saturated FKBP12). In kind it is binding. The conditions noted are these: FRB dilutions with 100 nM test compound over immobilized FKBP12. As to the method: Biotinylated avi-FKBP12 was immobilized on a streptavidin chip (Cytiva Series S SA) using a Biacore 8K or 8k+ (Cytiva). To achieve an immobilization level of 100 RU, 0.3 μg/ml biotinylated avi-FKBP12 were injected for 80 sec at a flow rate of 10 μl/min. Serial dilution of FRB was prepared (12 concentrations, 3-fold dilutions, 0.00011-20 μM) and supplemented with 100 nM of a test compound. A-B-A injection mode was used to ensure saturation immobilized FKBP12 with respective test compound. 100 nM solution of the respective test compound was injected before FRB injection for 120 sec and during dissociation for 420 sec. The FRB dilutions were then injected 120 seconds contact time with increasing concentrations. Rapamycin was used as reference sample. 50 mM HEPES pH 7.5, 150 mM NaCl, 2 mM MgCl2, 1 mM DTT, 0.05% Tween-20, 1% DMSO was used as running buffer at a flow rate of 30 μl/min. The multi-cycle kinetics data were fit to a 1:1 binding model to measure the association rate ka (1/Ms), the dissociation rate kd (1/s) and the affinity Kd (M). In case of fast association and dissociation, steady state affinity analysis following the law of mass action was used to determine the affinity Kd (M).
On the technique in general: In SPR one partner is held on a chip, and binding of the other changes the refractive index at the surface.

For a further assay, the target named is T1, mTORC1 (Homo sapiens, UniProt P42345+P62942).
T1 construct: endogenous in cells; host or cells: PC-3 cells
Description: mTORC1 inhibition in PC-3 cells, AlphaLISA of p70S6K pT389 levels. In kind it is cell-based. The conditions noted are these: mTORC1 as measured by inhibition of p70S6K pT389 levels, read-out: mTROC1 IC50. The protocol:
mTORC1 inhibition was determined via analysis of phosphorylation levels of Phospho-p70 S6 kinase (p70S6K pT389) and Phospho-S6 Ribosomal Protein (pRPS6 pS240/pS244) with the corresponding AlphaLISA kits (PerkinElmer Alpha SF Ultra™ Multiplex phospho (Thr389)/total p70 S6K Assay Kit (Eu/Tb) and AlphaLISA SF Ultra™ p-Ribosomal Protein S6 (Ser240/244) Assay Kit).
%−activity=100*((Sample−Low control)/(High control−Low control))

The next assay has as its target FKBP12 (Homo sapiens, UniProt P62942). Description: SPR assay to determine binding affinity to FKBP12 (direct binding). The conditions noted are these: immobilized biotinylated avi-FKBP12, single-cycle kinetics. As to the method:
SPR Assay to Determine Binding Affinity to FKBP12.
Biotinylated avi-FKBP12 was immobilized on a streptavidin chip (Cytiva Series S SA) using a Biacore 8K or 8k+ (Cytiva). […] Test compounds described in Table 11 were diluted in DMSO to 100× working concentration. Each test compound was 100-fold diluted in 50 mM HEPES pH 7.5, 150 mM NaCl, 2 mM MgCl2, 1 mM DTT, 0.05% Tween-20 and a serial dilution prepared (9 concentrations, 3-fold dilutions, 0.08-500 nM). […] The compound dilutions were then injected at 100 uL/min for 120 seconds contact time in sequence with increasing concentrations. Dissociation was monitored for 3600 seconds. 50 mM HEPES pH 7.5, 150 mM NaCl, 2 mM MgCl2, 1 mM DTT, 0.05% Tween-20, 1% DMSO was used as running buffer. The single-cycle kinetics data were fit to a 1:1 binding model to measure the association rate ka (1/Ms), the dissociation rate kd (1/s) and the affinity Kd (M).

FKBP12, sequence (P62942 whole entry, species assumed): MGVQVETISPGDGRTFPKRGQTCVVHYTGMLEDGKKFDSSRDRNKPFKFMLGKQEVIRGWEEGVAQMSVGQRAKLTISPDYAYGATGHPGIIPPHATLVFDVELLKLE

One may read the Kd as the concentration at which binding is half-saturated. Low readings indicate a tighter complex, high ones a looser complex. One may read the IC50 as the concentration at which inhibition is half-maximal. For `COCCO[C@@H]1C[C@@H]2CC[C@@H](C)[C@@](O)(O2)C(=O)C(=O)N2CCCC[C@H]2C(=O)O[C@H]([C@H](C)C[C@@H]2CC[C@@H](OCCCN3CCN(C)CC3)[C@H](OC)C2)CC(=O)[C@H](C)/C=C(\C)[C@@H](O)[C@@H](OC)C(=O)[C@H](C)C[C@H](C)/C=C/C=C/C=C/1C` [Compound 32, (1R,9S,12S,15R,16E,18R,19R,21R,23S,24E,26E,28E,30R,32S,35R)-1,18-dihydroxy-19-methoxy-30-(2-methoxyethoxy)-12-[(1R)-2-[(1S,3R,4R)-3-methoxy-4-[3-(4-methylpiperazin-1-yl)propoxy]cyclohexyl]-1-methyl-ethyl]-15,17,21,23,29,35-hexamethyl-11,36-dioxa-4-azatricyclo[30.3.1.04,9]hexatriaconta-16,24,26,28-tetraene-2,3,10,14,20-pentone], the Kd in assay [1] was above 1100 nM; on FKBP12, 0.3 to 1 nM. The IC50 at mTORC1 is above 1.5 nM.
As to `CO[C@@H]1C[C@H](C[C@@H](C)[C@@H]2CC(=O)[C@H](C)/C=C(\C)[C@@H](O)[C@@H](OC)C(=O)[C@H](C)C[C@H](C)/C=C/C=C/C=C(\C)[C@H](OCC3COC3)C[C@@H]3CC[C@@H](C)[C@@](O)(O3)C(=O)C(=O)N3CCCC[C@H]3C(=O)O2)CC[C@H]1O` [Compound 122, (1R,9S,12S,15R,16E,18R,19R,21R,23S,24E,26E,28E,30R,32S,35R)-1,18-dihydroxy-12-[(2R)-1-[(1S,3R,4R)-4-hydroxy-3-methoxycyclohexyl]propan-2-yl]-19-methoxy-15,17,21,23,29,35-hexamethyl-30-[(oxetan-3-yl)methoxy]-11,36-dioxa-4-azatricyclo[30.3.1.04,9]hexatriaconta-16,24,26,28-tetraene-2,3,10,14,20-pentone], the values for the Kd (in assay [1]; on FKBP12) were above 1100 nM and 0.3 to 1 nM, respectively. The IC50 at mTORC1 is 0.8 to 1.5 nM.
On the same counts, the results for `CO[C@@H]1C[C@H](C[C@@H](C)[C@@H]2CC(=O)[C@H](C)/C=C(\C)[C@@H](O)[C@@H](OC)C(=O)[C@H](C)C[C@H](C)/C=C/C=C/C=C(\C)[C@H](OCCOCCO)C[C@@H]3CC[C@@H](C)[C@@](O)(O3)C(=O)C(=O)N3CCCC[C@H]3C(=O)O2)CC[C@H]1O` [Compound 125, (1R,9S,12S,15R,16E,18R,19R,21R,23S,24E,26E,28E,30R,32S,35R)-1,18-dihydroxy-30-[2-(2-hydroxyethoxy)ethoxy]-12-[(1R)-2-[(1S,3R,4R)-4-hydroxy-3-methoxy-cyclohexyl]-1-methyl-ethyl]-19-methoxy-15,17,21,23,29,35-hexamethyl-11,36-dioxa-4-azatricyclo[30.3.1.04,9]hexatriaconta-16,24,26,28-tetraene-2,3,10,14,20-pentone] are above 1100 nM, below 0.3 nM and 0.8 to 1.5 nM.
On to `CO[C@@H]1C[C@H](C[C@@H](C)[C@@H]2CC(=O)[C@H](C)/C=C(\C)[C@@H](O)[C@@H](OC)C(=O)[C@H](C)C[C@H](C)/C=C/C=C/C=C(\C)[C@@H](OC3COC3)C[C@@H]3CC[C@@H](C)[C@@](O)(O3)C(=O)C(=O)N3CCCC[C@H]3C(=O)O2)CC[C@H]1O` [Compound 523, (1R,9S,12S,15R,16E,18R,19R,21R,23S,24E,26E,28E,30S,32S,35R)-1,18-dihydroxy-12-[(2R)-1-[(1S,3R,4R)-4-hydroxy-3-methoxycyclohexyl]propan-2-yl]-19-methoxy-15,17,21,23,29,35-hexamethyl-30-(oxetan-3-yloxy)-11,36-dioxa-4-azatricyclo[30.3.1.04,9]hexatriaconta-16,24,26,28-tetraene-2,3,10,14,20-pentone], for which the Kd is above 1100 nM in assay [1] and below 0.3 nM on FKBP12. Moreover, the IC50 on mTORC1 is below 0.8 nM.
On the same counts, the results for `CO[C@@H]1C[C@H](C[C@@H](C)[C@@H]2CC(=O)[C@H](C)/C=C(\C)[C@@H](O)[C@@H](OC)C(=O)[C@H](C)C[C@H](C)/C=C/C=C/C=C(\C)[C@@H](OC3CC3)C[C@@H]3CC[C@@H](C)[C@@](O)(O3)C(=O)C(=O)N3CCCC[C@H]3C(=O)O2)CC[C@H]1O` [Compound 120, (1R,9S,12S,15R,16E,18R,19R,21R,23S,24E,26E,28E,30S,32S,35R)-30-(cyclopropoxy)-1,18-dihydroxy-12-[(1R)-2-[(1S,3R,4R)-4-hydroxy-3-methoxy-cyclohexyl]-1-methyl-ethyl]-19-methoxy-15,17,21,23,29,35-hexamethyl-11,36-dioxa-4-azatricyclo[30.3.1.04,9]hexatriaconta-16,24,26,28-tetraene-2,3,10,14,20-pentone] are below 500 nM, 0.3 to 1 nM and below 0.8 nM.
Taken in the same sequence, the figures for `CO[C@@H]1C[C@H](C[C@@H](C)[C@@H]2CC(=O)[C@H](C)/C=C(\C)[C@@H](O)[C@@H](OC)C(=O)[C@H](C)C[C@H](C)/C=C/C=C/C=C(\C)[C@H](OCCc3ccccc3)C[C@@H]3CC[C@@H](C)[C@@](O)(O3)C(=O)C(=O)N3CCCCC3C(=O)O2)CC[C@H]1O` (stereo partly drawn) [Compound 121, (1R,9S,12S,15R,16E,18R,19R,21R,23S,24E,26E,28E,30R,32S,35R)-1,18-dihydroxy-12-[(1R)-2-[(I S,3R,4R)-4-hydroxy-3-methoxy-cyclohexyl]-1-methyl-ethyl]-19-methoxy-15,17,21,23,29,35-hexamethyl-30-(2-phenylethoxy)-11,36-dioxa-4-azatricyclo[30.3.1.04,9]hexatriaconta-16,24,26,28-tetraene-2,3,10,14,20-pentone] were below 500 nM, above 1 nM and 0.8 to 1.5 nM.
On to `CO[C@@H]1C[C@H](C[C@@H](C)[C@@H]2CC(=O)[C@H](C)/C=C(\C)[C@@H](O)[C@@H](OC)C(=O)[C@H](C)C[C@H](C)/C=C/C=C/C=C(\C)[C@@H](OCCO)C[C@@H]3CC[C@@H](C)[C@@](O)(O3)C(=O)C(=O)N3CCCC[C@H]3C(=O)O2)CC[C@H]1OCCCN1CCOC[C@@H]1C` [Compound 401, (1R,9S,12S,15R,16E,18R,19R,21R,23S,24E,26E,28E,30S,32S,35R)-1,18-dihydroxy-30-(2-hydroxyethoxy)-19-methoxy-12-[(1R)-2-[(1S,3R,4R)-3-methoxy-4-[3-[(3S)-3-methylmorpholin-4-yl]propoxy]cyclohexyl]-1-methyl-ethyl]-15,17,21,23,29,35-hexamethyl-11,36-dioxa-4-azatricyclo[30.3.1.04,9]hexatriaconta-16,24,26,28-tetraene-2,3,10,14,20-pentone], for which the Kd in assay [1] was below 500 nM.
Consider `CO[C@@H]1C[C@H](C[C@@H](C)[C@@H]2CC(=O)[C@H](C)/C=C(\C)[C@@H](O)[C@@H](OC)C(=O)[C@H](C)C[C@H](C)/C=C/C=C/C=C(\C)[C@@H](OCCO)C[C@@H]3CC[C@@H](C)[C@@](O)(O3)C(=O)C(=O)N3CCCC[C@H]3C(=O)O2)CC[C@H]1OCCCN1CCOC[C@H]1C` [Compound 404, (1R,9S,12S,15R,16E,18R,19R,21R,23S,24E,26E,28E,30S,32S,35R)-1,18-dihydroxy-30-(2-hydroxyethoxy)-19-methoxy-12-[(1R)-2-[(1S,3R,4R)-3-methoxy-4-[3-[(3R)-3-methylmorpholin-4-yl]propoxy]cyclohexyl]-1-methyl-ethyl]-15,17,21,23,29,35-hexamethyl-11,36-dioxa-4-azatricyclo[30.3.1.04,9]hexatriaconta-16,24,26,28-tetraene-2,3,10,14,20-pentone], for which, at mTORC1, the IC50 was below 0.8 nM. The compound further had a Kd at FKBP12 below 0.3 nM.
